Here are results for 18 molecules from patent US12577267B2, “Pyrimidine compounds for use as MAP4K1 inhibitors” (GLENMARK SPECIALITY S.A., priority 2021, dated 2026).

Structures can show the parent of a compound that is named as a salt. Where two headings read alike, the source gives them in different places. Where only a bound is given, the exact number is not on record here.

The target in the assay is MAP4K-1 enzyme (Homo sapiens, UniProt Q92918). Put plainly: FRET one step binding assay (tracer displacement). The settings on record: for inhibition at 1 µM / % Inhibition at 1 μM: 1 μM compound; for inhibition at 10 µM / % Inhibition at 10 μM: 10 μM compound. As for the experimental part:
This is a one step binding assay based on the binding and displacement of the labeled tracer, where compound addition is followed by addition of the anti-GST tagged europium (Eu) as the donor and Alexa Fluor-labeled tracer as the acceptor.
Test compounds were dissolved in dimethylsulfoxide (DMSO) to prepare 10.0 mM stock solutions and diluted to the desired concentration. The final concentration of DMSO in the reaction was 3% (v/v). The assay mixture was prepared by mixing 2 nM of the Eu-Anti-GST Antibody and 5 nM MAP4K-1 enzyme in the Kinase buffer containing 50 mM HEPES (pH 7.5), 10 mM MgCl2, 1 mM EGTA, 0.01% Brij-35 with or without the desired concentration of the compound. The reaction was incubated on ice for 15 min. […] After shaking for 5 min the reaction was further incubated for 1 hour at room temperature and this was kept at 4° C. and read on ARTEMIS reader as per the kit instructions (Thermo). […] The activity was calculated as percent of control reaction. IC50 values were calculated from dose response curve by nonlinear regression analysis using GraphPad Prism software.

MAP4K-1 enzyme, sequence (Q92918 whole entry): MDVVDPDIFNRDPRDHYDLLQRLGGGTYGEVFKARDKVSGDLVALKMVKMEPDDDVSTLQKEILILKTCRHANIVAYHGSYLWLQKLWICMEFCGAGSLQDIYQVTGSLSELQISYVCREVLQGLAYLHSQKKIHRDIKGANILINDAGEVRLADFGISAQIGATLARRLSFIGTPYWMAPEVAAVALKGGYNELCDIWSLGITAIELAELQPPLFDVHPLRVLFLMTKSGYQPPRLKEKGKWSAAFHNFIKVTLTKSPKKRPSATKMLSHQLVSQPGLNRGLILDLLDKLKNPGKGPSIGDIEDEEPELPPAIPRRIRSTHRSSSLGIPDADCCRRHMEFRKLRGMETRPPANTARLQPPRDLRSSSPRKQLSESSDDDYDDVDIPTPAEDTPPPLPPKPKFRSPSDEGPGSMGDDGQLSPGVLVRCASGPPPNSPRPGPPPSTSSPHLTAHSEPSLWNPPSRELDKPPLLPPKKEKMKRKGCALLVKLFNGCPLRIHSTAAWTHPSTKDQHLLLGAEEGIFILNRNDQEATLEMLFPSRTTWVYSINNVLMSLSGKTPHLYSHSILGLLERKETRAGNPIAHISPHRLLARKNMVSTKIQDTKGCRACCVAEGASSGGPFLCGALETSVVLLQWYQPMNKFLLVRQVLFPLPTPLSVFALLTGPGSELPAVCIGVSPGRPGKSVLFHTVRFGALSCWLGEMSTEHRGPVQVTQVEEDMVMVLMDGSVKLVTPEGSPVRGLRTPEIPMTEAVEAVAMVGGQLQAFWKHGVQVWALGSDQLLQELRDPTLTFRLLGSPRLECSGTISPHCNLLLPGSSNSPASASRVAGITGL

Regarding `COc1cc2c(cc1Nc1ncc(Cl)c(Nc3ccc(N(C)S(=O)(=O)F)cc3P(C)(C)=O)n1)C(C)N(C)CC2` (racemic) [Example 44, ±(4-((5-Chloro-2-((6-methoxy-1,2-dimethyl-1,2,3,4-tetrahydroisoquinolin-7-yl)amino)pyrimidin-4-yl)amino)-3-dimethylphosphoryl)phenyl) (methyl)sulfamoylfluoride dihydrochloride], testing at 1 µM gave an inhibition of 81.6% and at 10 µM the inhibition was 79.6%. Moreover, where the note is “IC50 (nM)”, the IC50 is < 50 nM.

For `COc1cc2c(cc1Nc1ncc(Cl)c(Nc3ncc(OS(=O)(=O)F)cc3P(C)(C)=O)n1)C(C)N(C)CC2` (single isomer, unassigned; isomer 2) [Example 24, 6-((5-Chloro-2-((6-methoxy-1,2-dimethyl-1,2,3,4-tetrahydroisoquinolin-7-yl)amino)pyrimidin-4-yl)amino)-5-(dimethylphosphoryl)pyridin-3-yl sulfofluoridate dihydrochloride (Isomer 2)], the “% Inhibition at 1 μM” value turned out to be 86.68% and the “% Inhibition at 10 μM” value worked out at 85.52%. Also, the IC50 (IC50 (nM)) was < 50 nM.

In turn, `COc1cc2c(cc1Nc1ncc(Cl)c(Nc3cccc(OS(=O)(=O)F)c3P(C)(C)=O)n1)CN(C)CC2` [Example 19, 3-((5-Chloro-2-((6-methoxy-2-methyl-1,2,3,4-tetrahydroisoquinolin-7-yl)amino)pyrimidin-4-yl)amino)-2-(dimethylphosphoryl) phenylsulfofluoridate dihydrochloride] showed an inhibition at 1 µM of 76.6% and an inhibition at 10 µM of 78.2%. In addition, the IC50 (IC50 (nM)) is < 50 nM.

For `COc1cc2c(cc1Nc1ncc(Cl)c(Nc3ccc(OS(=O)(=O)F)cc3P(C)(C)=O)n1)CN(C1COC1)CC2` [Example 16, 4-((5-Chloro-2-((6-methoxy-2-(oxetan-3-yl)-1,2,3,4-tetrahydroisoquinolin-7-yl)amino)pyrimidin-4-yl)amino)-3-(dimethylphosphoryl)phenyl sulfurofluoridate dihydrochloride], the inhibition at 1 µM was 87.3% and the inhibition at 10 µM came to 86%. Besides, the IC50 (IC50 (nM)) was < 50 nM.

On to `CCN1CCc2cc(OC)c(Nc3ncc(Cl)c(Nc4ccc(OS(=O)(=O)F)cc4P(C)(C)=O)n3)cc2C1` [Example 9, 4-((5-Chloro-2-((2-ethyl-6-methoxy-1,2,3,4-tetrahydroisoquinolin-7-yl)amino)pyrimidin-4-yl)amino)-3-(dimethylphosphoryl) phenyl sulfofluoridate dihydrochloride], for which the inhibition at 1 µM turned out to be 78.5% and the inhibition at 10 µM was found to be 78.8%. The IC50 (IC50 (nM)) is < 50 nM.

Take `COc1cc2c(cc1Nc1ncc(Cl)c(Nc3cc(OS(=O)(=O)F)ccc3P(C)(C)=O)n1)C(C)N(C)CC2` (single isomer, unassigned; isomer 2) [Example 32, 3-((5-Chloro-2-((6-methoxy-1,2-dimethyl-1,2,3,4-tetrahydroisoquinolin-7-yl)amino)pyrimidin-4-yl)amino)-4-(dimethylphosphoryl)phenyl sulfofluoridate dihydrochloride (Isomer 2)]: the IC50 was < 50 nM, the “% Inhibition at 1 μM” value is listed as 84.51% and the “% Inhibition at 10 μM” value was 89.25%.

In the case of `Cn1nc(Nc2ncc(Cl)c(Nc3ccc(OS(=O)(=O)F)cc3P(C)(C)=O)n2)c2c1CNC2` [Example 41, 4-((5-Chloro-2-((1-methyl-1,4,5,6-tetrahydropyrrolo[3,4-c]pyrazol-3-yl)amino)pyrimidin-4-yl)amino)-3-(dimethylphosphoryl)phenyl sulfofluoridate hydrochloride], the inhibition at 1 µM was 90.4% and testing at 10 µM gave an inhibition of 85%. For the same molecule, for the setting “IC50 (nM)”, the IC50 is < 50 nM.

For the molecule `COc1cc2c(cc1Nc1ncc(Cl)c(Nc3cc(F)c(OS(=O)(=O)F)cc3P(C)(C)=O)n1)CN(C)CC2` [Example 27, 4-((5-Chloro-2-((6-methoxy-2-methyl-1,2,3,4-tetrahydroisoquinolin-7-yl)amino)pyrimidin-4-yl)amino)-5-(dimethylphosphoryl)-2-fluorophenyl sulfofluoridate dihydrochloride], the inhibition at 1 µM was found to be 81.1% and the inhibition at 10 µM came out at 82.6%. Moreover, for the setting “IC50 (nM)”, the IC50 was < 50 nM.

`COc1cc2c(cc1Nc1ncc(Cl)c(Nc3ccc(O[C@@H]4CCOC4)cc3P(C)(C)=O)n1)CN(C)CC2` [Example 49, (R)-(2-((5-Chloro-2-((6-methoxy-2-methyl-1,2,3,4-tetrahydroisoquinolin-7-yl)amino)pyrimidin-4-yl)amino)-5-((tetrahydrofuran-3-yl)oxy)phenyl)dimethyl phosphine oxide] had an inhibition at 1 µM of 94.3% and an inhibition at 10 µM of 91.7%. In addition, where the note is “read-out: IC50”, the IC50 is < 50 nM.

For `COc1cc2c(cc1Nc1ncc(Cl)c(Nc3ccc(OS(=O)(=O)F)cc3P(C)(C)=O)n1)CN(CCF)CC2` [Example 13, 4-((5-Chloro-2-((2-(2-fluoroethyl)-6-methoxy-1,2,3,4-tetrahydroisoquinolin-7-yl)amino)pyrimidin-4-yl)amino)-3-(dimethylphos-phoryl)phenylsulfofluoridate dihydrochloride], the inhibition at 1 µM was found to be 79.7% and the inhibition at 10 µM came to 81%. Where the note is “IC50 (nM)”, the half-inhibitory concentration (IC50) was < 50 nM.

In turn, `COc1cc2c(cc1Nc1ncc(Cl)c(Nc3ncc(OS(=O)(=O)F)cc3P(C)(C)=O)n1)C(C)N(C)CC2` (single isomer, unassigned; isomer 1) [Example 23, 6-((5-Chloro-2-((6-methoxy-1,2-dimethyl-1,2,3,4-tetrahydroisoquinolin-7-yl)amino)pyrimidin-4-yl)amino)-5-(dimethylphosphory)pyridin-3-yl sulfofluoridate dihyrochloride (Isomer 1)] returned an inhibition at 1 µM of 86.1% and an inhibition at 10 µM of 89.6%. The IC50 (IC50 (nM)) was 50 to 100 nM.

Regarding `CN1CCc2cc(F)c(Nc3ncc(Cl)c(Nc4ccc(OS(=O)(=O)F)cc4P(C)(C)=O)n3)cc2C1` [Example 26, 4-((5-Chloro-2-((6-fluoro-2-methyl-1,2,3,4-tetrahydroisoquinolin-7-yl)amino)pyrimidin-4-yl)amino)-3-(dimethylphosphoryl)phenyl sulfofluoridate dihydrochloride], testing at 1 µM gave an inhibition of 75.8% and 10 µM produced 76.5% inhibition. Further, the IC50 (IC50 (nM)) was < 50 nM.

In turn, `COc1cc2c(cc1Nc1ncc(Cl)c(Nc3ccc(N(C)C(=O)C(F)F)cc3P(C)(C)=O)n1)CN(C)CC2` [Example 53, N-(4-((5-Chloro-2-((6-methoxy-2-methyl-1,2,3,4-tetrahydroisoquinolin-7-yl)amino)pyrimidin-4-yl)amino)-3-(dimethylphosphoryl)phenyl)-2,2-difluoro-N-methylacetamide] displayed an inhibition at 1 µM of 82.4% and an inhibition at 10 µM of 90%. Where the note is “read-out: IC50”, the IC50 fell in the range of 50 to 100 nM.

`COc1cc2c(cc1Nc1ncc(Cl)c(Nc3ncc(OS(=O)(=O)F)cc3P(C)(C)=O)n1)CN(C)CC2` [Example 20, 6-((5-Chloro-2-((6-methoxy-2-methyl-1,2,3,4-tetrahydroisoquinolin-7-yl)amino)pyrimidin-4-yl)amino)-5-(dimethylphosphoryl)pyridin-3-yl sulfofluoridate dihydrochloride] returned an inhibition at 1 µM of 80.1% and an inhibition at 10 µM of 75.5%. Moreover, the IC50 (IC50 (nM)) was < 50 nM.

As for `COc1cc2c(cc1Nc1ncc(Cl)c(Nc3ccc(OS(=O)(=O)F)nc3P(C)(C)=O)n1)CN(C)CC2` [Example 21, 5-((5-Chloro-2-((6-methoxy-2-methyl-1,2,3,4-tetrahydroisoquinolin-7-yl)amino)pyrimidin-4-yl)amino)-6-(dimethylphosphoryl)pyridin-2-yl sulfofluoridate dihydrochloride], the inhibition at 1 µM was 79.2% and the inhibition at 10 µM is 81.6%. Also, the IC50 (IC50 (nM)) is < 50 nM.

As to `[2H]C([2H])([2H])Oc1cc2c(cc1Nc1ncc(Cl)c(Nc3ccc(OS(=O)(=O)F)cc3P(C)(C)=O)n1)C([2H])([2H])NCC2` [Example 40, 4-((5-Chloro-2-((6-methoxy-d3-1,2,3,4-tetrahydroisoquinolin-7-yl-1,1-d2)amino)pyrimidin-4-yl)amino)-3-(dimethylphosphoryl)phenyl sulfofluoridate dihydrochloride], at 1 µM the inhibition was 83.3% and the inhibition at 10 µM turned out to be 84%. Besides, the IC50 (IC50 (nM)) was < 50 nM.

On to `CN1CCc2cc(OC(F)F)c(Nc3ncc(Cl)c(Nc4ccc(OS(=O)(=O)F)cc4P(C)(C)=O)n3)cc2C1` [Example 10, 4-((5-Chloro-2-((6-(difluoromethoxy)-2-methyl-1,2,3,4-tetrahydroqisoquinolin-7-yl)amino)pyrimidin-4-yl)amino)-3-(dimethylphosphoryl)phenyl sulfurofluoridate dihydrochloride], for which the inhibition at 1 µM is 92.3% and the inhibition at 10 µM turned out to be 89%. In addition, the IC50 (IC50 (nM)) was < 50 nM.

`[2H]C([2H])([2H])Oc1cc2c(cc1Nc1ncc(Cl)c(Nc3ccc(OS(=O)(=O)F)cc3P(C)(C)=O)n1)CNCC2` [Example 39, 4-((5-Chloro-2-((6-methoxy-d3-1,2,3,4-tetrahydroisoquinolin-7-yl)amino)pyrimidin-4-yl)amino)-3-(dimethylphosphoryl)phenyl sulfofluoridate dihydrochloride] came in with an inhibition at 1 µM of 75.1% and an inhibition at 10 µM of 87%. The IC50 (IC50 (nM)) is < 50 nM.

Usually inhibition stands for the drop in the measured response relative to a control, in per cent. A lower inhibition goes with a weak effect. One may read the IC50 as the concentration that inhibits the measured activity by half. For orientation: % Inhibition means the change of the read-out against control, counted positive when it falls. A higher % Inhibition goes with strong suppression.
